What follows are compounds tested against T1, Y2 receptors (Homo sapiens, UniProt P49146) (assay: Radioligand binding assay ([125I]PYY, KAN-Ts cell membranes)). Settings: Table 2, [125I]PYY 80 pM, average of results, read-out: IC50.
T1 construct: endogenous in cells; host or cells: KAN-Ts cells (membranes)
T1 sequence (P49146 1-381): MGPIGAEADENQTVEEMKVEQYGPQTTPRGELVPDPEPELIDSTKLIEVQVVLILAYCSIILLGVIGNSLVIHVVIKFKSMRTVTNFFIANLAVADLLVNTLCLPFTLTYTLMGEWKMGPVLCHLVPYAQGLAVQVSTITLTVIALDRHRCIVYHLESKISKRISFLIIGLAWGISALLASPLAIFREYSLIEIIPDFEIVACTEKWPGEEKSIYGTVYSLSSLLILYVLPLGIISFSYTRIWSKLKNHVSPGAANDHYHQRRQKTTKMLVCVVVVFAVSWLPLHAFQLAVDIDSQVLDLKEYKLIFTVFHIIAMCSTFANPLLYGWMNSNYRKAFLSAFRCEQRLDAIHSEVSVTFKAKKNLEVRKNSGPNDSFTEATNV
How it was run: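 Membranes from KAN-Ts cells endogenously expressing Y2 incubated 1 h at rt with 80 pM [^125I]PYY ± test compound in HEPES buffer with NaCl, Ca^2+ and Mg^2+. Bound radioactivity collected by filtration; specific binding defined with […]. IC50 from sigmoidal fit, averaged over 3-8 duplicate experiments.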

Compound | IC50 [nM]
CCC(CC)C(=O)Nc1ccc(N2CCC(C(C(=O)N3CCC(F)(F)C3)c3ccccc3)CC2)c(F)c1 (centres unmarked) [Example 210, N-(4-{4-[2-(3,3-Difluoro-pyrrolidin-1-yl)-2-oxo-1-phenyl-ethyl]-piperidin-1-yl}-3-fluoro-phenyl)-2-ethyl-butyramide] | 25
CCC(CC)C(=O)Nc1ccc(N2CCC(C(C(=O)N3CCCC3)c3ccccc3)CC2)c(F)c1 (centres unmarked) [Example 211, 2-Ethyl-N-{3-fluoro-4-[4-(2-oxo-1-phenyl-2-pyrrolidin-1-yl-ethyl)-piperidin-1-yl]-phenyl}-butyramide] | 26
CCC(CC)C(=O)Nc1ccc(N2CCC(C(C(=O)NC3CC3)c3ccccc3)CC2)c(F)c1 (centres unmarked) [Example 212, N-{4-[4-(Cyclopropylcarbamoyl-phenyl-methyl)-piperidin-1-yl]-3-fluoro-phenyl}-2-ethyl-butyramide] | 55
CCC(CC)C(=O)Nc1ccc(N2CCC(C(C(=O)Nc3nc(C)cs3)c3ccccc3)CC2)c(F)c1 (centres unmarked) [Example 213, 2-Ethyl-N-(3-fluoro-4-{4-[(4-methyl-thiazol-2-ylcarbamoyl)-phenyl-methyl]-piperidin-1-yl}-phenyl)-butyramide] | 30
CCC(CC)C(=O)Nc1ccc(N2CCC(C(C(=O)OC)c3ccccc3)CC2)c(F)c1 (centres unmarked) [Example 214, {1-[4-(2-Ethyl-butyrylamino)-2-fluoro-phenyl]-piperidin-4-yl}-phenyl-acetic acid methyl ester] | 40
CCC(CC)C(=O)Nc1ccc(N2CCC(C(C(=O)N3CCCCC3)c3ccccc3)CC2)c(F)c1 (centres unmarked) [Example 215, 2-Ethyl-N-{3-fluoro-4-[4-(2-oxo-1-phenyl-2-piperidin-1-yl-ethyl)-piperidin-1-yl]-phenyl}-butyramide] | 100
CCC(CC)C(=O)Nc1ccc(N2CCC(C(C(=O)N3CCN(C)CC3)c3ccccc3)CC2)c(F)c1 (centres unmarked) [Example 216, 2-Ethyl-N-(3-fluoro-4-{4-[2-(4-methyl-piperazin-1-yl)-2-oxo-1-phenyl-ethyl]-piperidin-1-yl}-phenyl)-butyramide] | ≥ 10000
CCC(CC)C(=O)Nc1ccc(N2CCC(C(C(=O)N(CC)CC)c3ccccc3)CC2)c(C#N)c1 (centres unmarked) [Example 217, N-{3-Cyano-4-[4-(diethylcarbamoyl-phenyl-methyl)-piperidin-1-yl]-phenyl}-2-ethyl-butyramide] | 10
CCC(CC)C(=O)Nc1ccc(N2CCC(C(C(=O)N(CC)CC)c3ccccc3)CC2)c(Br)c1 (centres unmarked) [Example 219, N-{3-Bromo-4-[4-(diethylcarbamoyl-phenyl-methyl)-piperidin-1-yl]-phenyl}-2-ethyl-butyramide] | 37
CCN(CC)C(=O)C(c1ccccc1)C1CCN(c2ccc(NC(=O)C3CCCC3)cc2F)CC1 (centres unmarked) [Example 220, Cyclopentanecarboxylic acid {4-[4-(diethylcarbamoyl-phenyl-methyl)-piperidin-1-yl]-3-fluoro-phenyl}-amide] | 40
CCN(CC)C(=O)C(c1ccccc1)N1CCN(c2ccc(NC(=O)C3CCCC3)cc2C#N)CC1 (centres unmarked) [Example 221, Cyclopentanecarboxylic acid {3-cyano-4-[4-(diethylcarbamoyl-phenyl-methyl)-piperazin-1-yl]-phenyl}-amide] | 48
CCN(CC)C(=O)C(c1ccccc1)C1CCN(c2ccc(NC(=O)C3CCC3)cc2F)CC1 (centres unmarked) [Example 222, Cyclobutanecarboxylic acid {4-[4-(diethylcarbamoyl-phenyl-methyl)-piperidin-1-yl]-3-fluoro-phenyl}-amide] | 63
CCC(CC)C(=O)Nc1ccc(N2CCN(C(C(=O)N(CC)CC)c3ccccc3)CC2)c(Br)c1 (centres unmarked) [Example 223, N-{3-Bromo-4-[4-(diethylcarbamoyl-phenyl-methyl)-piperazin-1-yl]-phenyl}-2-ethyl-butyramide] | 80
CCN(CC)C(=O)C(c1ccccc1)N1CCN(c2ccc(NC(=O)C3CCCC3)c(F)c2C#N)CC1 (centres unmarked) [Example 224, Cyclopentanecarboxylic acid {3-cyano-4-[4-(diethylcarbamoyl-phenyl-methyl)-piperazin-1-yl]-2-fluoro-phenyl}-amide] | 92
CCC(CC)C(=O)Nc1cc(F)c(N2CCN(C(C(=O)N(CC)CC)c3ccccc3)CC2)cc1F (centres unmarked) [Example 225, N-{4-[4-(Diethylcarbamoyl-phenyl-methyl)-piperazin-1-yl]-2,5-difluoro-phenyl}-2-ethyl-butyramide] | 107
CCC(CC)C(=O)Nc1cc(F)c(N2CCN(C(C(=O)N(CC)CC)c3ccccc3)CC2)c(F)c1 (centres unmarked) [Example 226, N-{4-[4-(Diethylcarbamoyl-phenyl-methyl)-piperazin-1-yl]-3,5-difluoro-phenyl}-2-ethyl-butyramide] | 95

Compound | IC50 [nM]
CCC(CC)C(=O)Nc1ccc(N2CCN(C(C(=O)N(CC)CC)c3ccccc3)CC2)c(C#N)c1F (centres unmarked) [Example 227, N-{3-Cyano-4-[4-(diethylcarbamoyl-phenyl-methyl)-piperazin-1-yl]-2-fluoro-phenyl}-2-ethyl-butyramide] | 116
CCN(CC)C(=O)C(c1ccccc1)N1CCN(c2ccc(NC(=O)C3CC4CCC3C4)cc2F)CC1 (centres unmarked) [Example 228, Bicyclo[2.2.1]heptane-2-carboxylic acid {4-[4-(diethylcarbamoyl-phenyl-methyl)-piperazin-1-yl]-3-fluoro-phenyl}-amide] | 120
CCN(CC)C(=O)C(c1ccccc1)C1CCN(c2ccc(NC(=O)C3CC3)cc2F)CC1 (centres unmarked) [Example 229, Cyclopropanecarboxylic acid {4-[4-(diethylcarbamoyl-phenyl-methyl)-piperidin-1-yl]-3-fluoro-phenyl}-amide] | 120
CCN(CC)C(=O)C(c1ccccc1)N1CCN(c2c(F)cc(NC(=O)C3CCCC3)cc2F)CC1 (centres unmarked) [Example 230, Cyclopentanecarboxylic acid {4-[4-(diethylcarbamoyl-phenyl-methyl)-piperazin-1-yl]-3,5-difluoro-phenyl}-amide] | 150
CCN(CC)C(=O)C(c1ccccc1)N1CCN(c2ccc(NC(=O)C3CCCC3)cc2C)CC1 (centres unmarked) [Example 231, Cyclopentanecarboxylic acid {4-[4-(diethylcarbamoyl-phenyl-methyl)-piperazin-1-yl]-3-methyl-phenyl}-amide] | 200
CCC(CC)C(=O)Nc1ccc(N2CCN(C(C(=O)N(CC)CC)c3ccccc3)CC2)c(C)c1 (centres unmarked) [Example 232, N-{4-[4-(Diethylcarbamoyl-phenyl-methyl)-piperazin-1-yl]-3-methyl-phenyl}-2-ethyl-butyramide] | 210
CCC(CC)C(=O)Nc1ccc(N2CCN(C(C(=O)N(CC)CC)c3ccccc3)CC2)c(F)c1F (centres unmarked) [Example 233, N-{4-[4-(Diethylcarbamoyl-phenyl-methyl)-piperazin-1-yl]-2,3-difluoro-phenyl}-2-ethyl-butyramide] | 270
CCC(CC)C(=O)Nc1ccc(N2CCC(C(C#N)c3ccccc3)CC2)c(F)c1 (centres unmarked) [Example 234, N-{4-[4-(Cyano-phenyl-methyl)-piperidin-1-yl]-3-fluoro-phenyl}-2-ethyl-butyramide] | 280
CCNC(=O)C(c1ccccc1)N1CCN(c2c(F)cc(NC(=O)[C@@H]3CCOC3)cc2F)CC1 (stereo partly drawn) [Example 236, (R)-Tetrahydro-furan-3-carboxylic acid {4-[4-(ethylcarbamoyl-phenyl-methyl)-piperazin-1-yl]-3,5-difluoro-phenyl}-amide] | 900
CCC(CC)C(=O)Nc1ccc(N2CCN(C(C(=O)N(CC)CC)c3ccccc3)CC2)cc1C#N (centres unmarked) [Example 237, N-{2-Cyano-4-[4-(diethylcarbamoyl-phenyl-methyl)-piperazin-1-yl]-phenyl}-2-ethyl-butyramide] | 1100
CCN(CC)C(=O)C(c1ccccc1)N1CCN(c2ccc(NC(=O)C3CCCC3)cc2OC)CC1 (centres unmarked) [Example 238, Cyclopentanecarboxylic acid {4-[4-(diethylcarbamoyl-phenyl-methyl)-piperazin-1-yl]-3-methoxy-phenyl}-amide] | 1300
CCNC(=O)C(c1ccccc1)N1CCN(c2c(F)cc(NC(=O)C3CCCC3)cc2F)CC1 (centres unmarked) [Example 239, Cyclopentanecarboxylic acid {4-[4-(ethylcarbamoyl-phenyl-methyl)-piperazin-1-yl]-3,5-difluoro-phenyl}-amide] | 2500
C#Cc1cc(NC(=O)C(CC)CC)ccc1N1CCN(C(C(=O)N(CC)CC)c2ccccc2)CC1 (centres unmarked) [Example 240, N-{4-[4-(Diethylcarbamoyl-phenyl-methyl)-piperazin-1-yl]-3-ethynyl-phenyl}-2-ethyl-butyramide] | 18
CCN(CC)C(=O)C(c1ccccc1)N1CCN(c2ccc(NC(=O)CC3CC3)cc2F)CC1 (centres unmarked) [Example 241, 2-{4-[4-(2-Cyclopropyl-acetylamino)-2-fluoro-phenyl]-piperazin-1-yl}-N,N-diethyl-2-phenyl-acetamide] | 300
CCN(CC)C(=O)C(c1ccccc1)N1CCN(c2ccc(NC(=O)CC3CCCC3)cc2F)CC1 (centres unmarked) [Example 242, 2-{4-[4-(2-Cyclopentyl-acetylamino)-2-fluoro-phenyl]-piperazin-1-yl}-N,N-diethyl-2-phenyl-acetamide] | 3000
CCN(CC)C(=O)C(c1ccccc1)N1CCN(c2ccc(NC(=O)C3CC3C)cc2F)CC1 (centres unmarked) [Example 243, 2-Methyl-cyclopropanecarboxylic acid {4-[4-(diethylcarbamoyl-phenyl-methyl)-piperazin-1-yl]-3-fluoro-phenyl}-amide] | 120
